Experimental data from ChEMBL document CHEMBL3885881, “DrugMatrix”.

Species: Rattus norvegicus
Assay: DrugMatrix - Regimen: Daily Repeat
Assay type: toxicity, organism-based, Sprague-Dawley
Design: regimen Daily Repeat, gender Male, age 6-8 weeks
Conditions: in vivo, po, 739 mg/kg, route oral GAVAGE, dose level High, vehicle 100 % WATER; for ABSOLUTE BASOPHIL / ABSOLUTE EOSINOPHIL / ABSOLUTE LYMPHOCYTE / ABSOLUTE MONOCYTE / ABSOLUTE SEGMENTED NEUTROPHIL / BASOPHIL / EOSINOPHIL / ERYTHROCYTE COUNT / HEMATOCRIT / HEMOGLOBIN / LEUKOCYTE COUNT / LYMPHOCYTE / MEAN CORPUSCULAR HEMOGLOBIN / MEAN CORPUSCULAR HEMOGLOBIN CONCENTRATION / MEAN CORPUSCULAR VOLUME / MONOCYTE / NEUTROPHIL / NUCLEATED RED BLOOD CELLS / PLATELET COUNT: tissue Blood; for ALANINE AMINOTRANSFERASE / ALBUMIN / ALKALINE PHOSPHATASE / ASPARTATE AMINOTRANSFERASE / BLOOD UREA NITROGEN / CARBON DIOXIDE / CHLORIDE / CHOLESTEROL / CREATINE PHOSPHOKINASE / CREATININE / GLUCOSE / LACTATE DEHYDROGENASE / LIPASE / PHOSPHORUS / POTASSIUM / SODIUM / TOTAL BILIRUBIN / TOTAL PROTEIN / URIC ACID: tissue Plasma

**Q.** `C[C@H]1COc2c(N3CCN(C)CC3)c(F)cc3c(=O)c(C(=O)O)cn1c23.C[C@H]1COc2c(N3CCN(C)CC3)c(F)cc3c(=O)c(C(=O)O)cn1c23.O` [LEVOFLOXACIN] was tested. Which “ABSOLUTE BASOPHIL” value (72 h, time 3 day) did it give?
**A.** The value was 0 CELLS/uL.

**Q.** And the “ABSOLUTE EOSINOPHIL” value (72 h, time 3 day)?
**A.** The value was 60.67 CELLS/uL.

**Q.** And the “ABSOLUTE LYMPHOCYTE” value (72 h, time 3 day)?
**A.** The value was 15481 CELLS/uL.

**Q.** What about the “ABSOLUTE MONOCYTE” value (72 h, time 3 day) of the same molecule?
**A.** The value was 289.33 CELLS/uL.

**Q.** And the “ABSOLUTE SEGMENTED NEUTROPHIL” value (72 h, time 3 day)?
**A.** The value was 1169 CELLS/uL.

**Q.** What about the BASOPHIL (72 h, time 3 day) of the same molecule?
**A.** Its BASOPHIL is 0%.

**Q.** What about the EOSINOPHIL (72 h, time 3 day) of the same molecule?
**A.** Its EOSINOPHIL is 0.33%.

**Q.** What about the “ERYTHROCYTE COUNT” value (72 h, time 3 day) of the same molecule?
**A.** The value was 5.52 x10E6/uL.

**Q.** What about the HEMATOCRIT (72 h, time 3 day) of the same molecule?
**A.** The HEMATOCRIT was 35.23%.

**Q.** What about the HEMOGLOBIN (72 h, time 3 day) of the same molecule?
**A.** Its HEMOGLOBIN is 13.27 G/DL.

**Q.** And the “LEUKOCYTE COUNT” value (72 h, time 3 day)?
**A.** The value was 17 x10E3/uL.

**Q.** And the LYMPHOCYTE (72 h, time 3 day)?
**A.** Its LYMPHOCYTE is 91%.

**Q.** What about the “MEAN CORPUSCULAR HEMOGLOBIN” value (72 h, time 3 day) of the same molecule?
**A.** Its value is 24.03 pg.

**Q.** What about the “MEAN CORPUSCULAR HEMOGLOBIN CONCENTRATION” value (72 h, time 3 day) of the same molecule?
**A.** Its value is 37.67 G/DL.

**Q.** What about the “MEAN CORPUSCULAR VOLUME” value (72 h, time 3 day) of the same molecule?
**A.** The value was 63.8 fL.

**Q.** What about the MONOCYTE (72 h, time 3 day) of the same molecule?
**A.** Its MONOCYTE is 1.67%.

**Q.** What about the NEUTROPHIL (72 h, time 3 day) of the same molecule?
**A.** Its NEUTROPHIL is 7%.

**Q.** And the “NUCLEATED RED BLOOD CELLS” value (72 h, time 3 day)?
**A.** The value was 0 /100WBC.

**Q.** And the “PLATELET COUNT” value (72 h, time 3 day)?
**A.** The value was 1423.67 x10E3/uL.

**Q.** And the “ALANINE AMINOTRANSFERASE” value (72 h, time 3 day)?
**A.** The value was 46.33 u/L.

**Q.** What about the ALBUMIN (72 h, time 3 day) of the same molecule?
**A.** The ALBUMIN was 4.1 G/DL.

**Q.** What about the “ALKALINE PHOSPHATASE” value (72 h, time 3 day) of the same molecule?
**A.** The value was 308 u/L.

**Q.** And the “ASPARTATE AMINOTRANSFERASE” value (72 h, time 3 day)?
**A.** Its value is 72.67 u/L.

**Q.** What about the “BLOOD UREA NITROGEN” value (72 h, time 3 day) of the same molecule?
**A.** The value was 16.33 mg/dL.

**Q.** And the “CARBON DIOXIDE” value (72 h, time 3 day)?
**A.** The value was 26.67 mmol/L.

**Q.** What about the CHLORIDE (72 h, time 3 day) of the same molecule?
**A.** Its CHLORIDE is 104.33 MEQ/L.

**Q.** What about the CHOLESTEROL (72 h, time 3 day) of the same molecule?
**A.** Its CHOLESTEROL is 82.33 mg/dL.

**Q.** And the “CREATINE PHOSPHOKINASE” value (72 h, time 3 day)?
**A.** The value was 201.67 u/L.

**Q.** And the CREATININE (72 h, time 3 day)?
**A.** Its CREATININE is 0.14 mg/dL.

**Q.** And the GLUCOSE (72 h, time 3 day)?
**A.** Its GLUCOSE is 154.33 mg/dL.

**Q.** And the “LACTATE DEHYDROGENASE” value (72 h, time 3 day)?
**A.** Its value is 124 u/L.

**Q.** What about the LIPASE (72 h, time 3 day) of the same molecule?
**A.** The LIPASE was 8.67 u/L.

**Q.** And the PHOSPHORUS (72 h, time 3 day)?
**A.** The PHOSPHORUS was 11.47 mg/dL.

**Q.** What about the POTASSIUM (72 h, time 3 day) of the same molecule?
**A.** The POTASSIUM was 6.3 MEQ/L.

**Q.** And the SODIUM (72 h, time 3 day)?
**A.** The SODIUM was 146.37 MEQ/L.

**Q.** What about the “TOTAL BILIRUBIN” value (72 h, time 3 day) of the same molecule?
**A.** The value was 0.17 mg/dL.

**Q.** And the “TOTAL PROTEIN” value (72 h, time 3 day)?
**A.** Its value is 5.97 G/DL.

**Q.** What about the “URIC ACID” value (72 h, time 3 day) of the same molecule?
**A.** The value was 1.7 mg/dL.

**Q.** And the “ABSOLUTE BASOPHIL” value (120 h, time 5 day)?
**A.** Its value is 0 CELLS/uL.

**Q.** What about the “ABSOLUTE EOSINOPHIL” value (120 h, time 5 day) of the same molecule?
**A.** Its value is 0 CELLS/uL.

**Q.** And the “ABSOLUTE LYMPHOCYTE” value (120 h, time 5 day)?
**A.** The value was 15118 CELLS/uL.

**Q.** What about the “ABSOLUTE MONOCYTE” value (120 h, time 5 day) of the same molecule?
**A.** Its value is 376 CELLS/uL.

**Q.** And the “ABSOLUTE SEGMENTED NEUTROPHIL” value (120 h, time 5 day)?
**A.** The value was 706 CELLS/uL.

**Q.** What about the BASOPHIL (120 h, time 5 day) of the same molecule?
**A.** Its BASOPHIL is 0%.

**Q.** And the EOSINOPHIL (120 h, time 5 day)?
**A.** The EOSINOPHIL was 0%.

**Q.** What about the “ERYTHROCYTE COUNT” value (120 h, time 5 day) of the same molecule?
**A.** The value was 6.32 x10E6/uL.

**Q.** What about the HEMATOCRIT (120 h, time 5 day) of the same molecule?
**A.** Its HEMATOCRIT is 38.53%.

**Q.** And the HEMOGLOBIN (120 h, time 5 day)?
**A.** The HEMOGLOBIN was 14.33 G/DL.

**Q.** And the “LEUKOCYTE COUNT” value (120 h, time 5 day)?
**A.** The value was 16.2 x10E3/uL.

**Q.** And the LYMPHOCYTE (120 h, time 5 day)?
**A.** Its LYMPHOCYTE is 93.33%.

**Q.** What about the “MEAN CORPUSCULAR HEMOGLOBIN” value (120 h, time 5 day) of the same molecule?
**A.** Its value is 22.7 pg.

**Q.** And the “MEAN CORPUSCULAR HEMOGLOBIN CONCENTRATION” value (120 h, time 5 day)?
**A.** Its value is 37.2 G/DL.

**Q.** What about the “MEAN CORPUSCULAR VOLUME” value (120 h, time 5 day) of the same molecule?
**A.** The value was 61.03 fL.

**Q.** What about the MONOCYTE (120 h, time 5 day) of the same molecule?
**A.** Its MONOCYTE is 2.33%.

**Q.** What about the NEUTROPHIL (120 h, time 5 day) of the same molecule?
**A.** Its NEUTROPHIL is 4.33%.

**Q.** What about the “NUCLEATED RED BLOOD CELLS” value (120 h, time 5 day) of the same molecule?
**A.** Its value is 0.33 /100WBC.

**Q.** What about the “PLATELET COUNT” value (120 h, time 5 day) of the same molecule?
**A.** Its value is 1446 x10E3/uL.

**Q.** What about the “ALANINE AMINOTRANSFERASE” value (120 h, time 5 day) of the same molecule?
**A.** Its value is 51.67 u/L.

**Q.** What about the ALBUMIN (120 h, time 5 day) of the same molecule?
**A.** The ALBUMIN was 4.27 G/DL.

**Q.** What about the “ALKALINE PHOSPHATASE” value (120 h, time 5 day) of the same molecule?
**A.** Its value is 400 u/L.

**Q.** And the “ASPARTATE AMINOTRANSFERASE” value (120 h, time 5 day)?
**A.** Its value is 69.33 u/L.

**Q.** And the “BLOOD UREA NITROGEN” value (120 h, time 5 day)?
**A.** Its value is 16.33 mg/dL.

**Q.** And the “CARBON DIOXIDE” value (120 h, time 5 day)?
**A.** Its value is 25.67 mmol/L.

**Q.** What about the CHLORIDE (120 h, time 5 day) of the same molecule?
**A.** The CHLORIDE was 105.33 MEQ/L.

**Q.** What about the CHOLESTEROL (120 h, time 5 day) of the same molecule?
**A.** Its CHOLESTEROL is 69.67 mg/dL.

**Q.** What about the “CREATINE PHOSPHOKINASE” value (120 h, time 5 day) of the same molecule?
**A.** The value was 212 u/L.

**Q.** What about the CREATININE (120 h, time 5 day) of the same molecule?
**A.** Its CREATININE is 0.19 mg/dL.

**Q.** And the GLUCOSE (120 h, time 5 day)?
**A.** Its GLUCOSE is 191.33 mg/dL.

**Q.** What about the “LACTATE DEHYDROGENASE” value (120 h, time 5 day) of the same molecule?
**A.** The value was 130.33 u/L.

**Q.** And the LIPASE (120 h, time 5 day)?
**A.** The LIPASE was 9 u/L.

**Q.** What about the PHOSPHORUS (120 h, time 5 day) of the same molecule?
**A.** The PHOSPHORUS was 14.27 mg/dL.

**Q.** What about the POTASSIUM (120 h, time 5 day) of the same molecule?
**A.** The POTASSIUM was 6.6 MEQ/L.

**Q.** And the SODIUM (120 h, time 5 day)?
**A.** The SODIUM was 147.87 MEQ/L.

**Q.** And the “TOTAL BILIRUBIN” value (120 h, time 5 day)?
**A.** The value was 0.17 mg/dL.

**Q.** What about the “TOTAL PROTEIN” value (120 h, time 5 day) of the same molecule?
**A.** The value was 6.23 G/DL.

**Q.** And the “URIC ACID” value (120 h, time 5 day)?
**A.** The value was 2.37 mg/dL.
